According to US20030203915A1, “Nitric oxide donors, compositions and methods of use related applications” (priority 2002, published 2003):
Counter-ions that a name gives are not always drawn. Like-named read-outs stand apart in the source and are kept apart here.

Key:
[1] = test system: human coronary artery smooth muscle cells (CASMC); assay: Vascular Smooth Muscle Cell (SMC) Antiproliferation Assay; type: cell-based
Procedure: The cells used in this assay were-human coronary artery smooth-muscle cells (CASMC) supplied by Clonetics Corp. (San Diego, Calif.).
Stock solutions of the test compounds were prepared just prior to addition to the cells by dissolving in ethanol at a concentration of 1000 times the highest concentration to be assayed. This stock solution was diluted, as required, with ethanol to lower concentrations. […] Control cultures received 2 μL of ethanol per well (n=4). On the following morning, the cultures were examined microscopically and their condition recorded. On the third day after test compound addition (˜68 hr), the cultures were examined microscopically again and the viable cells counted with an hemacytometer following trypsinization with 0.25% trypsin-1 mM EDTA. Trypan Blue dye exclusion was used to discriminate between viable and dead cells.

[2] = CASMC, viable cell count (Trypan Blue) ~68 hr after compound addition, non-nitrosylated (sulfhydryl) compound, read-out: IC 50 μM, Non-nitrosylated Compound (inhibition of proliferation of vascular smooth muscle cells)
[3] = Homo sapiens, CASMC, viable cell count (Trypan Blue) ~68 hr after compound addition, nitrosylated (nitrosothiol) compound, read-out: IC 50 μM, Nitrosylated Compound (inhibition of proliferation of vascular smooth muscle cells)
[4] = Homo sapiens, CASMC, viable cell count (Trypan Blue) ~68 hr after compound addition, non-nitrosylated (sulfhydryl) compound, read-out: IC 50 μM, Non-nitrosylated Compound (inhibition of proliferation of vascular smooth muscle cells)
[5] = CASMC, viable cell count (Trypan Blue) ~68 hr after compound addition, non-nitrosylated (sulfhydryl) compound
[6] = CASMC, viable cell count (Trypan Blue) ~68 hr after compound addition, nitrosylated (nitrosothiol) compound, read-out: IC 50 μM, Nitrosylated Compound (inhibition of proliferation of vascular smooth muscle cells)

## CC1(C)c2ccccc2C(C)(C)C1(CC#N)SN=O [Example 4, 2-(1,1,3,3-Tetramethyl-2-(nitrosothio)indan-2-yl)ethanenitrile]
other
  melting point: 67 to 69 °C

## CC(C)(CNC(=O)CSCC(=O)O)SN=O [Example 5, 2-((N-(2-Methyl-2-(nitrosothio)propyl)carbamoyl)methylthio)acetic acid]
other
  melting point: 47 to 51 °C

## CC12CCC(C1)C(C)(C)C2(CCO)SN=O (stereo not shown) [Example 7, 2-(1,3,3-Trimethyl-2-(nitrosothio)bicyclo(2.2.1)hept-2-yl)ethan-1-ol]
other
  melting point: 81 to 85 °C

## CC(C)(S)CN1C(=O)C2C3C=CC(C3)C2C1=O (stereo not shown) [Example 11a, 4-Aza-4-(2-methyl-2-sulfanylpropy)tricyclo(5.2.1.0<2,6>)dec-8-ene-3,5-dione]
[1]; [2]
  IC50: 80 µM

## CC(C)(CN1C(=O)C2C3C=CC(C3)C2C1=O)SN=O (stereo not shown) [Example 11b, 4-Aza-4-(2-methyl-2-(nitrosothio)propyl)tricyclo(5.2.1.0<2,6>)dec-8-ene-3,5-dione]
[1]; [3]
  IC50: 16 µM

## CC(C)(C)OC(=O)CC1(S)C2CC3CC(C2)CC1C3 (stereo not shown) [Example 12a, tert-Butyl-2-(2-sulfanyladamant-2-yl)acetate]
[1]; [4]
  IC50: 25 µM

## NC(=O)CC1(S)C2CC3CC(C2)CC1C3 (stereo not shown) [Example 12c, 2-(2-Sulfanyladamantan-2-yl)acetamide]
[1]; [5]
  IC 50 μM, Non-nitrosylated Compound (inhibition of proliferation of vascular smooth muscle cells): slight inhibition

## NC(=O)CC1(SN=O)C2CC3CC(C2)CC1C3 (stereo not shown) [Example 12d, 2-(2-(Nitrosothio)adamantan-2-yl)acetamide]
[1]; [3]
  IC50: 12 µM

## CC(C)(C)C(CC#N)(SN=O)C(C)(C)C [Example 15, 3-(tert-Butyl)-4,4-dimethyl-3-(nitrosothio)pentanenitrile]
other
  melting point: 92 to 93 °C

## CC(C)(S)CN [Example 18a, 2-Mercapto-2-methyl-1-propylamine]
[1]; [5]
  IC 50 μM, Non-nitrosylated Compound (inhibition of proliferation of vascular smooth muscle cells): slight inhibition

## CSc1nccc(NCC(C)(C)S)n1 [Example 18b, 2-Methyl-1-((2-methylthiopyrimidin-4-yl)amino)propane-2-thiol]
[1]; [3]
  IC50: 26 µM

## CSc1nccc(NCC(C)(C)SN=O)n1 [Example 18c, (2-Methyl-2-(nitrosothio)propyl)(2-methylthiopyrimidin-4-yl)amine]
other
  melting point: 77 to 79 °C

## CC(C)(S)CNC(=O)CCCC(=O)O [Example 19a, 4-(N-(2-Methyl-2-sulfanylpropyl)carbamoyl)butanoic acid]
[1]; [4]
  IC50: > 200 µM

## CC(C)(CNC(=O)CCCC(=O)O)SN=O [Example 19b, 4-(N-(2-Methyl-2-(nitrosothio)propyl)carbamoyl)butanoic acid]
other
  melting point: 104 to 107 °C
[1]; [3]
  IC50: 50 µM

## CC(C)(S)CNC(=O)NCC(C)(C)S [Example 20c, N-(2-Methyl-2-sulfanylpropyl)((2-methyl-2-sulfanylpropyl)amino)carboxade]
[1]; [5]
  IC 50 μM, Non-nitrosylated Compound (inhibition of proliferation of vascular smooth muscle cells): slight inhibition

## CC(C)(CNC(=O)NCC(C)(C)SN=O)SN=O [Example 20d, N-(2-Methyl-2-(nitrosothio)propyl)((2-methyl-2-(nitrosothio)propyl)amino)carboxamide]
[1]; [3]
  IC50: 28 µM

## CC(C)(S)CN1C(=O)NC(=O)C1=O [Example 21b, 1-(2-Methyl-2-sulfanylpropyl)imidazolidine-2,4,5-trione]
[1]; [5]
  IC 50 μM, Non-nitrosylated Compound (inhibition of proliferation of vascular smooth muscle cells): no inhibition

## CC(C)(CN1C(=O)NC(=O)C1=O)SN=O [Example 21c, 1-(2-Methyl-2-(nitrosothio)propyl)imidazolidine-2,4,5-trione]
other
  melting point: 80 to 82 °C
[1]; [3]
  IC50: 12 µM

## CC1(S)C2CC3CC(C2)CC1C3 (stereo not shown) [Example 25b, 2-Methyladamantane-2-thiol]
[1]; [4]
  IC50: 65 µM

## CC1(SN=O)C2CC3CC(C2)CC1C3 (stereo not shown) [Example 25c, (2-Methyladamantan-2-yl)nitrosothio]
[1]; [6]
  IC50: 33 µM

## O=C(OCc1ccccc1)N1CCC(S)(CO)CC1 [Example 26d, Phenylmethyl 4-(hydroxymethyl)-4-sulfanylpiperidinecarboxylate]
[1]; [5]
  IC 50 μM, Non-nitrosylated Compound (inhibition of proliferation of vascular smooth muscle cells): no inhibition

## O=NSC1(CO)CCN(C(=O)OCc2ccccc2)CC1 [Example 26e, Phenylmethyl 4-(hydroxymethyl)-4-(nitrosothio)piperidinecarboxylate]
[1]; [6]
  IC50: 33 µM

## CC(C)(S)CNC(=O)C(C)(C)CCC(=O)O [Example 27a]
[1]; [2]
  IC50: 78 µM

## CC(C)(CNC(=O)C(C)(C)CCC(=O)O)SN=O [Example 27b, 4-Methyl-4-(N-(2-methyl-2-(nitrosothio)propyl)carbamoyl)pentanoic acid]
other
  melting point: 93 to 96 °C
[1]; [3]
  IC50: 34 µM

## CC(C)(C)OC(=O)CC1(SN=O)C2CC3CC(C2)CC1C3 (stereo not shown) [Example 29, tert-Butyl 2-(2-(nitrosothio)adamantan-2-yl)acetate]
other
  melting point: 85 to 87 °C
[1]; [3]
  IC50: 11 µM

## COc1ccc(C(=O)OCCC2(SN=O)C3CC4CC(C3)CC2C4)cc1 (stereo not shown) [Example 31, 2-(2-(Nitrosothio)adamantan-2-yl)ethyl 4-methoxybenzoate]
other
  melting point: 100 to 101 °C

## O=C(CC1(S)C2CC3CC(C2)CC1C3)NCCO (stereo not shown) [Example 34c, N-(2-Hydroxyethyl)-2-(2-sulfanyladamantan-2-yl)acetamide]
[1]; [5]
  IC 50 μM, Non-nitrosylated Compound (inhibition of proliferation of vascular smooth muscle cells): no inhibition

## O=NSC1(CC(=O)NCCO)C2CC3CC(C2)CC1C3 (stereo not shown) [Example 34d, N-(2-Hydroxyethyl)-2-(2-(nitrosthio)adamantan-2-yl)acetamide]
[1]; [6]
  IC50: 23 µM

## CC1(S)CN2CCC1CC2.Cl (stereo not shown) [Example 36b, 3-Methylquinudidine-3-thiol hydrochloride]
[1]; [5]
  IC 50 μM, Non-nitrosylated Compound (inhibition of proliferation of vascular smooth muscle cells): no inhibition

## CC1(SN=O)CN2CCC1CC2 (stereo not shown) [Example 36c, (3-Methylquinudidin-3-yl)nitrosothio hydrochlroide]
[1]; [6]
  IC50: 22 µM

## O=NSC1(CC(=O)OCC(CO[N+](=O)[O-])(CO[N+](=O)[O-])CO[N+](=O)[O-])C2CC3CC(C2)CC1C3 (stereo not shown) [Example 37, 2,2-Bis((nitrooxy)methyl)-3-(nitrooxy)propyl 2-(2-(nitrosothio)adamantan-2-yl)acetate]
[1]; Homo sapiens, 68 h, read-out: IC 50 μM, Nitrosylated Compound (inhibition of proliferation of vascular smooth muscle cells)
  IC50: 5 µM

## CC(C)(CN)SN=O [Example 38a, 2-Methyl-2-(nitrosothio)propylamine hydrochloride]
[1]; [3]
  IC50: 40 to 60 µM

## CC(C)(CNC(=O)C(C)(C)CO[N+](=O)[O-])SN=O [Example 38b, 2,2-Dimethyl-N-(2-methyl-2-(nitrosothio)propyl)-3-(nitrooxy)propanamide]
[1]; [3]
  IC50: 50 µM

## C[N+](C)(CCNC(=O)CC1(S)C2CC3CC(C2)CC1C3)Cc1ccccc1.[Cl-] (stereo not shown) [Example 43b, N-(2-(Dimethylbenzylammonium)ethyl)-2-(2-sulfanyladamantan-2-yl)acetamide chloride]
[1]; [5]
  IC 50 μM, Non-nitrosylated Compound (inhibition of proliferation of vascular smooth muscle cells): no inhibition

## C[N+](C)(CCNC(=O)CC1(SN=O)C2CC3CC(C2)CC1C3)Cc1ccccc1 (stereo not shown) [Example 43c, N-(2-(Dimethylbenzylammonium)ethyl)-2-(2-(nitrosothio)adamantan-2-yl)acetamide chloride]
[1]; [6]
  IC50: 27 µM

## C[N+](C)(C)CCNC(=O)CC1(S)C2CC3CC(C2)CC1C3.[Cl-] (stereo not shown) [Example 44b, 2-(2—Sulfanyladamantan-2-yl)-N-(2(trimethylammonium)ethyl)acetamide chloride]
[1]; [5]
  IC 50 μM, Non-nitrosylated Compound (inhibition of proliferation of vascular smooth muscle cells): no inhibition

## C[N+](C)(C)CCNC(=O)CC1(SN=O)C2CC3CC(C2)CC1C3 (stereo not shown) [Example 44c, 2-(2-(Nitrosothio)adamantan-2-yl)-N-(2-(trimethylammonium)ethyl)-acetamide chloride]
[1]; [6]
  IC50: 33.5 µM

## SC1(C2OCCO2)CCCCC1 [Example 45a, 2(1-Mercaptocyclohex-1-yl)-1,3-dioxolane]
[1]; [5]
  IC 50 μM, Non-nitrosylated Compound (inhibition of proliferation of vascular smooth muscle cells): slight inhibition

## O=NSC1(C2OCCO2)CCCCC1 [Example 45b, 2(1-Nitrosomercaptocyclohex-1-yl)-1,3-dioxolane]
other
  melting point: 37 to 39 °C
[1]; [3]
  IC50: 42 µM

## SC1(C2OCCCO2)CCCCC1 [Example 46a, 2-(1-Mercaptocyclohex-1-yl)-1,3-dioxane]
[1]; [5]
  IC 50 μM, Non-nitrosylated Compound (inhibition of proliferation of vascular smooth muscle cells): no inhibition

## O=NSC1(C2OCCCO2)CCCCC1 [Example 46b, 2-(1-Nitrosomercaptocyclohex-1-yl)-1,3-dioxane]
other
  melting point: 34 to 36 °C
[1]; [3]
  IC50: 47 µM

## COP(=O)(CC(S)(C1CC1)C1CC1)OC [Example 47a, Dimethyl (2,2-dicyclopropyl-2-mercaptoethyl)phosphonate]
[1]; [5]
  IC 50 μM, Non-nitrosylated Compound (inhibition of proliferation of vascular smooth muscle cells): slight inhibition

## COP(=O)(CC(SN=O)(C1CC1)C1CC1)OC [Example 47b, Dimethyl (2,2-dicyclopropyl-2-(nitrosothio)ethyl)phosphonate]
[1]; [6]
  IC50: 41 µM
